According to publication PMC3789958, “A Bacterial Glucanotransferase Can Replace the Complex Maltose Metabolism Required for Starch to Sucrose Conversion in Leaves at Night*” (The Journal of Biological Chemistry, 2013):

T1: DPE2 (Arabidopsis thaliana, UniProt Q8RXD9)
T1 construct: recombinant in E. coli Rosetta II, pET151, N-terminal His6 tag removed with TEV protease; homodimer; biotinylated for SPR
T1 sequence (Q8RXD9 1-955): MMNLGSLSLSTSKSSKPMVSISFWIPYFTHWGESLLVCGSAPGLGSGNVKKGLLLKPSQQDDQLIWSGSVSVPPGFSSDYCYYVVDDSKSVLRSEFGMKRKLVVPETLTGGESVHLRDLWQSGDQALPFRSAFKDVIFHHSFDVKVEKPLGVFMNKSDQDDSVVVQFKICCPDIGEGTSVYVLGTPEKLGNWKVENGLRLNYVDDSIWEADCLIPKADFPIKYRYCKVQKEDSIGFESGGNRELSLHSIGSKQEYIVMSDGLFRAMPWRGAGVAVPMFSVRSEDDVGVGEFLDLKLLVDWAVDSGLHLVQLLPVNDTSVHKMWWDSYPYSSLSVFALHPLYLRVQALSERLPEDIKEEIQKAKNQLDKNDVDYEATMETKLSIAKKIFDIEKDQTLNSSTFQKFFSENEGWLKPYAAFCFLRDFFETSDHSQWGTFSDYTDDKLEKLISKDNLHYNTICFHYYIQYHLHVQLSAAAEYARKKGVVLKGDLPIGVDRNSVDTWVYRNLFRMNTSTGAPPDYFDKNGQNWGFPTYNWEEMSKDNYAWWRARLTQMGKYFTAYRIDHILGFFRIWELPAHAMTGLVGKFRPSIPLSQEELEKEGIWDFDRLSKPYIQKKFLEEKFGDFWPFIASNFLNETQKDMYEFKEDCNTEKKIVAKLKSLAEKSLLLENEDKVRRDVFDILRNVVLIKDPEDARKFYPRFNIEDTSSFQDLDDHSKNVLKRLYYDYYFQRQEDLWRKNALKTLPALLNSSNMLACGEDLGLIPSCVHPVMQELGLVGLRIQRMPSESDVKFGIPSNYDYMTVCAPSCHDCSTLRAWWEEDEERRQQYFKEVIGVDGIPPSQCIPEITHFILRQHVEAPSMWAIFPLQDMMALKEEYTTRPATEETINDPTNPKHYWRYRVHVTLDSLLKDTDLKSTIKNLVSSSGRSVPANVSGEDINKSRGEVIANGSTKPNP

T2: MalQ (Escherichia coli, UniProt P15977)
T2 construct: recombinant in E. coli, His-tagged, IMAC purified; biotinylated or amine-coupled for SPR
T2 sequence (P15977 1-694): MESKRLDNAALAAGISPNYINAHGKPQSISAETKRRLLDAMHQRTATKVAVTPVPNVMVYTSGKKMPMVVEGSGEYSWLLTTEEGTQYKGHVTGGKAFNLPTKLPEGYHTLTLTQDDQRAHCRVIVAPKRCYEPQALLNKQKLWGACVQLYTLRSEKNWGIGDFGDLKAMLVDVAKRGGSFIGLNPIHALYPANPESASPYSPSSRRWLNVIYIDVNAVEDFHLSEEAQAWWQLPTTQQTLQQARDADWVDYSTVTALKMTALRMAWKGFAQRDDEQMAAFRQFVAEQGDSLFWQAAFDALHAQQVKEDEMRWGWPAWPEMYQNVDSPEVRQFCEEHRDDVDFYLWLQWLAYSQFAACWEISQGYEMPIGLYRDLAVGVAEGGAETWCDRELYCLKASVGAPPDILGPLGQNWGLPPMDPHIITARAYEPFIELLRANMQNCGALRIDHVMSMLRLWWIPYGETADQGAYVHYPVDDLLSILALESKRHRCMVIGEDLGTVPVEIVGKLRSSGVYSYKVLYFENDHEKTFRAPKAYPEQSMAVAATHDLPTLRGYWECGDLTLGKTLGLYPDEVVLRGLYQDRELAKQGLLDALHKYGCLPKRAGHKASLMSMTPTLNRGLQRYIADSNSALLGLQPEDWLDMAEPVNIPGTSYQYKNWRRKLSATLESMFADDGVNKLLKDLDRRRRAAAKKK


Experiments:
[1] = molecular target: T1, DPE2; experiment: SPR, steady-state affinity fit, biotinylated protein on streptavidin chip; format: binding; details: 10 mM HEPES pH 7.0, 25 °C
[2] = molecular target: T2, MalQ; experiment: as above; format: binding; details: 10 mM HEPES pH 7.0, 25 °C
[3] = molecular target: T2, MalQ; experiment: SPR, steady-state affinity fit, MalQ amine-coupled to CM5 chip; format: binding; details: 10 mM HEPES pH 7.0, 25 °C; read-out: dissociation constant
[4] = molecular target: T2, MalQ; experiment: coupled hexokinase / glucose-6-phosphate dehydrogenase assay, Hanes plot; format: biochemical; details: maltose as donor, Glc7 as acceptor; two separate preparations; pH 7.9, 1 mM MgCl2
[5] = molecular target: T1, DPE2; experiment: as above; format: biochemical; details: maltose as donor, glycogen as acceptor; two separate preparations; pH 7.9, 1 mM MgCl2
[6] = molecular target: the molecule itself; experiment: SEC; Superdex S-200 16/60 in 25 mM HEPES (pH 7.5), 50 mM NaCl; purified DPE2 after His tag cleavage; elution compared with molecular mass markers

Molecule	dissociation constant [1]	dissociation constant [2]	also measured
OC[C@H]1O[C@H](O[C@H]2[C@H](O)[C@@H](O)[C@@H](O[C@H]3[C@H](O)[C@@H](O)[C@@H](O[C@H]4[C@H](O)[C@@H](O)[C@@H](O[C@H]5[C@H](O)[C@@H](O)[C@@H](O[C@H]6[C@H](O)[C@@H](O)C(O)O[C@@H]6CO)O[C@@H]5CO)O[C@@H]4CO)O[C@@H]3CO)O[C@@H]2CO)[C@H](O)[C@@H](O)[C@@H]1O (stereo partly drawn) [Glc6]	bound malto-oligosaccharides Glc5, Glc6, and Glc7 more strongly than Glc4	progressively lower affinities for Glc5, Glc6, and Glc7	–
OC[C@H]1O[C@H](O[C@H]2[C@H](O)[C@@H](O)[C@@H](O[C@H]3[C@H](O)[C@@H](O)[C@@H](O[C@H]4[C@H](O)[C@@H](O)[C@@H](O[C@H]5[C@H](O)[C@@H](O)C(O)O[C@@H]5CO)O[C@@H]4CO)O[C@@H]3CO)O[C@@H]2CO)[C@H](O)[C@@H](O)[C@@H]1O (stereo partly drawn) [Glc5]	bound malto-oligosaccharides Glc5, Glc6, and Glc7 more strongly than Glc4	progressively lower affinities for Glc5, Glc6, and Glc7	–
OC[C@H]1O[C@H](O[C@H]2[C@H](O)[C@@H](O)[C@@H](O[C@H]3[C@H](O)[C@@H](O)[C@@H](O[C@H]4[C@H](O)[C@@H](O)C(O)O[C@@H]4CO)O[C@@H]3CO)O[C@@H]2CO)[C@H](O)[C@@H](O)[C@@H]1O (stereo partly drawn) [Glc4]	bound malto-oligosaccharides Glc5, Glc6, and Glc7 more strongly than Glc4	–	Kd [3]: 410 nM
OC[C@H]1O[C@H](O[C@H]2[C@H](O)[C@@H](O)[C@@H](O[C@H]3[C@H](O)[C@@H](O)C(O)O[C@@H]3CO)O[C@@H]2CO)[C@H](O)[C@@H](O)[C@@H]1O (stereo partly drawn) [Glc3]	–	–	Kd [3]: 260 nM
OC[C@H]1O[C@H](O[C@H]2[C@H](O)[C@@H](O)[C@@H](O[C@H]3[C@H](O)[C@@H](O)[C@@H](O[C@H]4[C@H](O)[C@@H](O)[C@@H](O[C@H]5[C@H](O)[C@@H](O)[C@@H](O[C@H]6[C@H](O)[C@@H](O)[C@@H](O[C@H]7[C@H](O)[C@@H](O)C(O)O[C@@H]7CO)O[C@@H]6CO)O[C@@H]5CO)O[C@@H]4CO)O[C@@H]3CO)O[C@@H]2CO)[C@H](O)[C@@H](O)[C@@H]1O (stereo partly drawn) [Glc7]	bound malto-oligosaccharides Glc5, Glc6, and Glc7 more strongly than Glc4	progressively lower affinities for Glc5, Glc6, and Glc7	–
OC[C@H]1O[C@H](O[C@H]2[C@H](O)[C@@H](O)C(O)O[C@@H]2CO)[C@H](O)[C@@H](O)[C@@H]1O (stereo partly drawn) [maltose]	–	–	Km [4]: 2.1 and 1.9 mM; Km [5]: 2.9 and 2.3 mM
DPE2 (4-alpha-glucanotransferase, disproportionating enzyme 2) from Arabidopsis, recombinant (enzyme, Arabidopsis thaliana, UniProt Q8RXD9 1-955, looked up, DPE2, cytosolic 4-alpha-glucanotransferase of Arabidopsis thaliana, At2g40840; also called native DPE2; recombinant DPE2; source: E. coli Rosetta II, purified (nickel IMAC, TEV protease treatment, second IMAC, Superdex S-200); not shown: His6, N-terminal, cleaved) MMNLGSLSLSTSKSSKPMVSISFWIPYFTHWGESLLVCGSAPGLGSGNVKKGLLLKPSQQDDQLIWSGSVSVPPGFSSDYCYYVVDDSKSVLRSEFGMKRKLVVPETLTGGESVHLRDLWQSGDQALPFRSAFKDVIFHHSFDVKVEKPLGVFMNKSDQDDSVVVQFKICCPDIGEGTSVYVLGTPEKLGNWKVENGLRLNYVDDSIWEADCLIPKADFPIKYRYCKVQKEDSIGFESGGNRELSLHSIGSKQEYIVMSDGLFRAMPWRGAGVAVPMFSVRSEDDVGVGEFLDLKLLVDWAVDSGLHLVQLLPVNDTSVHKMWWDSYPYSSLSVFALHPLYLRVQALSERLPEDIKEEIQKAKNQLDKNDVDYEATMETKLSIAKKIFDIEKDQTLNSSTFQKFFSENEGWLKPYAAFCFLRDFFETSDHSQWGTFSDYTDDKLEKLISKDNLHYNTICFHYYIQYHLHVQLSAAAEYARKKGVVLKGDLPIGVDRNSVDTWVYRNLFRMNTSTGAPPDYFDKNGQNWGFPTYNWEEMSKDNYAWWRARLTQMGKYFTAYRIDHILGFFRIWELPAHAMTGLVGKFRPSIPLSQEELEKEGIWDFDRLSKPYIQKKFLEEKFGDFWPFIASNFLNETQKDMYEFKEDCNTEKKIVAKLKSLAEKSLLLENEDKVRRDVFDILRNVVLIKDPEDARKFYPRFNIEDTSSFQDLDDHSKNVLKRLYYDYYFQRQEDLWRKNALKTLPALLNSSNMLACGEDLGLIPSCVHPVMQELGLVGLRIQRMPSESDVKFGIPSNYDYMTVCAPSCHDCSTLRAWWEEDEERRQQYFKEVIGVDGIPPSQCIPEITHFILRQHVEAPSMWAIFPLQDMMALKEEYTTRPATEETINDPTNPKHYWRYRVHVTLDSLLKDTDLKSTIKNLVSSSGRSVPANVSGEDINKSRGEVIANGSTKPNP	–	–	stoichiometry N [6]: 2
